Data reported in patent US20230285450A1 (priority 2020, published 2023).
Where a name gives a salt, the structure may show the parent alone.

Legend:
[1] = tested on: bovine cornea (eye mucosa irritation)
Excerpt: The BCOP assay is a test to evaluate an irritation index for the eye mucosa using opacity and permeability. […] An in vitro irritancy score (IVIS) may be calculated by measuring the opacity and permeability, and the IVIS value may be calculated by [Equation 3].
IVIS=Mean opacity unit[…] [Equation 3]

[2] = tested on: S. aureus; experiment: Sterilization test of nitrogen oxide solutions without plasma; type: cell-based; settings: ionized nitrogen oxide solutions without plasma
Description: (§1) In order to confirm a sterilization effect of nitrogen oxides without plasma, ionized NO, NO2 and NO3 solutions were prepared and then sterilization experiments of S. typhimurium, S. aureus and E. coli were tested.

[3] = tested on: S. typhimurium; experiment: as above; type: cell-based; settings: ionized nitrogen oxide solutions without plasma
Description: as §1

[4] = tested on: E. coli; experiment: as above; type: cell-based; settings: ionized nitrogen oxide solutions without plasma
Description: as §1

[5] = tested on: BALB/3T3 clone A31 cells
[6] = tested on: cells; experiment: Annexin V/PI toxicity evaluation; type: cell-based; settings: spots in upper right end indicate dead cells
[7] = tested on: SKINETHIC™ human skin model; experiment: Skin irritation test; type: cell-based; settings: relative to negative control group (PBS)
Description: In the skin irritation test, the absorbance was measured for a […]™ human skin model, and a cell viability value (%) was calculated using [Equation 4] to [Equation 6].
Cell viability (%) of negative control group=[absorbance of negative control group/absorbance of negative control group]×100 [Equation 4]
Cell viability (%) of positive control group=[absorbance of positive control group/absorbance of negative control group]×100 [Equation 5]

Question: Which results are given for `CCO` [ethyl alcohol]?
Answer: corneal opacity (appearance) [1]: completely opaque; IVIS (in vitro irritancy score) ([1]; bovine): 39.4 ± 3.6; Opacity unit ([1]; bovine): 19.9 ± 0.6; Transmittance (Absorbance (OD490)) ([1]; bovine): 1.300 ± 0.203

Question: Which sterilization effect [2] does the source give for `O=[N+]([O-])O` [NO3] here?
Answer: no sterilization effect was observed

Question: And the sterilization effect [3]?
Answer: no sterilization effect was observed

Question: What about the sterilization effect [4] of the same compound?
Answer: no sterilization effect was observed

Question: Which phototoxicity conclusion [5] does the source give for `CN(C)CCCN1c2ccccc2Sc2ccc(Cl)cc21` [chlorpromazine hydrochloride] here?
Answer: phototoxicity was shown

Question: What about the “mean photo effect (MPE)” value ([5]; mouse) of the same compound?
Answer: 0.418

Question: And the “photo irritation factor (PIF)” value ([5]; mouse)?
Answer: 18.882

Question: For `OO` [H2O2, hydrogen peroxide], which “Annexin V/PI toxicity” value [6] is on record?
Answer: many spots were present in the upper right end

Question: For `O=NO` [NO2], which sterilization effect [2] is on record?
Answer: no sterilization effect was observed

Question: What about the sterilization effect [3] of the same compound?
Answer: no sterilization effect was observed

Question: What about the sterilization effect [4] of the same compound?
Answer: no sterilization effect was observed

Question: How did the cell viability [7] turn out when `CCCCCCCCCCCCOS(=O)(=O)[O-].[Na+]` [sodium dodecyl sulfate] was run?
Answer: about 1.1%
